Experimental data published in PMC8790579, “Activity-Based Protein Profiling for the Identification of Novel Carbohydrate-Active Enzymes Involved in Xylan Degradation in the Hyperthermophilic Euryarchaeon Thermococcus sp. Strain 2319x1E” (Frontiers in Microbiology, 2022).

Experiments:
EGIDFPOO_00532 = system: T1, EGIDFPOO_00532; assay: nitrophenol release, absorbance; assay type: biochemical, Thermococcus sp. 2319x1E; settings: pH 8.0, 100°C; refolding buffer with 2 M urea, 10% sucrose
T1 construct: N-terminal 6xHis-tag, pET-28b(+) NheI/XhoI, E. coli Rosetta; primers encode N-term MLVFPDSFL and C-term KYGLPEL

EGIDFPOO_00674 = system: T2, EGIDFPOO_00674; assay: nitrophenol release, absorbance; assay type: biochemical, Thermococcus sp. 2319x1E; settings: pH 8.0 (50 mM Tris-HCl), 100°C
T2 construct: C-terminal 6xHis-tag, pET-28b(+) NcoI/EcoRI, E. coli Rosetta; Ni-IDA purified; primers encode N-term MGYQKFGYHFHA and C-term NGASIGPGF before HHHHHH; GH57 domain 52-300, predicted catalytic E153/D253

Km (EGIDFPOO_00532) [mM]	Km (EGIDFPOO_00674) [mM]	Structure (SMILES)
6.23		O=[N+]([O-])c1ccccc1O[C@@H]1O[C@H](CO)[C@H](O)[C@H](O)[C@H]1O [ONPG]
	2.57	CC(=O)Oc1ccc([N+](=O)[O-])cc1 [PNPA]
0.18		O=[N+]([O-])c1ccc(O[C@@H]2O[C@H](CO)[C@@H](O)[C@H](O)[C@H]2O)cc1 [PNPG]
4.38		O=[N+]([O-])c1ccc(O[C@@H]2OC[C@@H](O)[C@H](O)[C@H]2O)cc1 [PNPX]
